Measurements from patent publication US20200222347A1, “ANTIMICROBIALS AND METHODS OF USE THEREOF” (priority 2013, published 2020).
Values joined by “and” are separate entries in the source; they are usually repeats but may differ in a detail not shown here. Identical values can stand only once.

Columns and labels:
S. mutans = experiment: Kirby-Bauer disc diffusion antimicrobial susceptibility; type: cell-based; conditions: 100 mM, carrier water
S. aureus 6538 = experiment: as above; type: cell-based; conditions: 100 mM, carrier water; 18-24 hours for aerobes
C difficile = experiment: as above; type: cell-based; conditions: 100 mM, carrier water; 48 hours for anaerobes
S. aureus 33591 (MRSA) = experiment: as above; type: cell-based, Staphylococcus aureus; conditions: 100 mM, carrier water; 18-24 hours for aerobes
C. perfringens = type: cell-based; conditions: 100 mM, carrier water
S. pyogenes = experiment: Kirby-Bauer disc diffusion antimicrobial susceptibility; type: cell-based; conditions: 100 mM, carrier water
all bacteria tested = experiment: In vitro antimicrobial susceptibility, whole panel; type: cell-based
P. aeruginosa = experiment: Kirby-Bauer disc diffusion antimicrobial susceptibility; type: cell-based, Pseudomonas aeruginosa; conditions: 100 mM, carrier water; 18-24 hours for aerobes
K. pneumoniae = experiment: as above; type: cell-based; conditions: 100 mM, carrier water; 18-24 hours for aerobes
[1] = test system: E. coli, ATTC 8739 and ATCC 43895; experiment: as above; type: cell-based; conditions: 100 mM, carrier water; 18-24 hours for aerobes
Legionella 43662 = type: cell-based
[2] = test system: Staphylococcus epidermidis ATCC 51625 (MRSE); experiment: In vitro antimicrobial test (FIG. 32); type: cell-based
[3] = test system: Pseudomonas aeruginosa ATCC9027; experiment: Paper disc test with water or propylene glycol, Example 10
[4] = test system: Aureobasidium pullulans, ATCC 15233; experiment: In vitro test of 2, 4, 6 Trihydroxybenzaldehyde against a fungi; type: cell-based; conditions: 100 mM
[5] = test system: Staphylococcus aureus ATCC33591 (MRSA); experiment: Paper disc test with water or propylene glycol, Example 10

Oc1cc(O)c2cc(O)c(-c3ccc(O)c(O)c3)[o+]c2c1.[Cl-] [Cyanidin CI, cyanidin chloride]
effectiveness against S. mutans (S. mutans): effective | effectiveness against S. aureus 6538 (S. aureus 6538): effective | effectiveness against C. difficile (growth inhibition) (C difficile): effective | effectiveness against S. aureus 33591 (MRSA) (S. aureus 33591 (MRSA)): effective | effectiveness against C. perfringens (growth inhibition) (C. perfringens): effective | effectiveness against S. pyogenes (S. pyogenes): effective | antibiotic properties (summary) (all bacteria tested): limited antibiotic properties

O=C(O)CNC(=O)c1ccccc1 [hippuric acid]
antibiotic properties (summary) (all bacteria tested): little activity

CC1(C)S[C@@H]2[C@H](NC(=O)[C@H](N)c3ccc(O)cc3)C(=O)N2[C@H]1C(=O)O [Amoxicillin, amoxicillin, reference compound]
effectiveness against P. aeruginosa (P. aeruginosa): no effect

COc1cc(C(=O)O)ccc1O [vanillic acid]
antibiotic properties (summary) (all bacteria tested): little activity

O=Cc1c(O)cc(O)cc1O [2, 4, 6 Trihydroxybenzaldehyde, 2, 4, 6 trihydroxybenzaldehyde]
effectiveness against K. pneumoniae (K. pneumoniae): effective | effectiveness against E. coli [1]: effective | effectiveness against Legionella 43662 (Legionella 43662): effective | effectiveness against S. aureus 6538 (S. aureus 6538): effective | effectiveness against MRSE ATCC 51625 [2]: effective | inhibition of growth under the sample ([3]; PPG): I | zone of inhibition ([3]; PPG): 3 mm | inhibition of growth under the sample ([3]; Water): I | zone of inhibition ([3]; Water, listed as 246 THBA): 2 mm and 3 mm | effectiveness against S. aureus 33591 (MRSA) (S. aureus 33591 (MRSA)): effective | effectiveness against P. aeruginosa (P. aeruginosa): effective | antibiotic properties (summary) (all bacteria tested): broad spectrum antibiotic | effectiveness against A. pullulans, a fungi [4]: effective | inhibition of growth under the sample ([5]; PPG): I | zone of inhibition ([5]; PPG): 12 mm | inhibition of growth under the sample ([5]; Water): I | zone of inhibition ([5]; Water, listed as 246 THBA): 14 mm and 15 mm
